# From ChEMBL document CHEMBL5233233, “Histone deacetylase 3 (HDAC3) inhibitors as anticancer agents: A review” (Eur J Med Chem, 2020)
# What was measured:
# Histone deacetylase 1 [1] = molecular target: T1, Histone deacetylase 1 (Homo sapiens, UniProt Q13547); test: Inhibition of HDAC1 (unknown origin)
# Histone deacetylase 2 [2] = molecular target: T2, Histone deacetylase 2 (Homo sapiens, UniProt Q92769); test: Inhibition of HDAC2 (unknown origin)
# Histone deacetylase 8 [3] = molecular target: T3, Histone deacetylase 8 (Homo sapiens, UniProt Q9BY41); test: Inhibition of HDAC8 (unknown origin)
# T3 sequence (Q9BY41 whole entry): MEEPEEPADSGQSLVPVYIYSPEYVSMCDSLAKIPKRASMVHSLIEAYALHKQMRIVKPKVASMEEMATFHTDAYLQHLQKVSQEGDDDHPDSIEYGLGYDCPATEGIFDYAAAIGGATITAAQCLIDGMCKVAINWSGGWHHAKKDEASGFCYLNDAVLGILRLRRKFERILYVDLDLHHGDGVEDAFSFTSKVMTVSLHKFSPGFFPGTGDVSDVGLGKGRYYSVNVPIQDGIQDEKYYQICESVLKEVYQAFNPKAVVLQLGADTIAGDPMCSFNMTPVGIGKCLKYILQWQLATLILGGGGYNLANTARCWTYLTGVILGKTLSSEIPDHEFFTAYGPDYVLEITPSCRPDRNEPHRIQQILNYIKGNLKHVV
# Histone deacetylase 3 [4] = molecular target: T4, Histone deacetylase 3 (Homo sapiens, UniProt O15379); test: Inhibition of HDAC3 (unknown origin)
# Histone deacetylase 2 [5] = molecular target: T2, Histone deacetylase 2; test: Inhibition of human recombinant HDAC2 expressed in baculovirus by using Boc-L-Lys(Ac)-AMC as substrate measured after 24 hrs by fluorescence based analysis
# Histone deacetylase 8 [6] = molecular target: T3, Histone deacetylase 8; test: Inhibition of human recombinant HDAC8 expressed in Escherichia coli BL21 (DE3) cells by using Boc-L-Lys(Ac)-AMC as substrate measured after 24 hrs by fluorescence based analysis
# Histone deacetylase 1 [7] = molecular target: T1, Histone deacetylase 1; test: Inhibition of human recombinant HDAC1 expressed in baculovirus by using Boc-L-Lys(Ac)-AMC as substrate measured after 24 hrs by fluorescence based analysis
# Histone deacetylase 3 [8] = molecular target: T4, Histone deacetylase 3; test: Inhibition of human recombinant HDAC3 expressed in baculovirus by using Boc-L-Lys(Ac)-AMC as substrate measured after 24 hrs by fluorescence based analysis
# Histone deacetylase 1 [9] = molecular target: T1, Histone deacetylase 1; test: Inhibition of human HDAC1 using human HeLa cell nuclear extract at 1 uM measured after 60 mins by fluorescence assay; format: subcellular, Nucleus
# Histone deacetylase 3 [10] = molecular target: T4, Histone deacetylase 3; test: Inhibition of human HDAC3 using human HeLa cell nuclear extract at 1 uM measured after 60 mins by fluorescence assay; format: subcellular, Nucleus
# Histone deacetylase 2 [11] = molecular target: T2, Histone deacetylase 2; test: Inhibition of human HDAC2 using human HeLa cell nuclear extract at 1 uM measured after 60 mins by fluorescence assay; format: subcellular, Nucleus
# Histone deacetylase 1 [12] = molecular target: T1, Histone deacetylase 1; test: Inhibition of HDAC1 (unknown origin) using Boc-Lys (Ac)-AMC as substrate measured after 30 mins by fluorescence based analysis
# [13] = molecular target: T5, Protein deacetylase HDAC6 (Homo sapiens, UniProt Q9UBN7); test: Inhibition of HDAC6 (unknown origin) using Boc-Lys (Ac)-AMC as substrate measured after 30 mins by fluorescence based analysis
# T5 sequence (Q9UBN7 whole entry): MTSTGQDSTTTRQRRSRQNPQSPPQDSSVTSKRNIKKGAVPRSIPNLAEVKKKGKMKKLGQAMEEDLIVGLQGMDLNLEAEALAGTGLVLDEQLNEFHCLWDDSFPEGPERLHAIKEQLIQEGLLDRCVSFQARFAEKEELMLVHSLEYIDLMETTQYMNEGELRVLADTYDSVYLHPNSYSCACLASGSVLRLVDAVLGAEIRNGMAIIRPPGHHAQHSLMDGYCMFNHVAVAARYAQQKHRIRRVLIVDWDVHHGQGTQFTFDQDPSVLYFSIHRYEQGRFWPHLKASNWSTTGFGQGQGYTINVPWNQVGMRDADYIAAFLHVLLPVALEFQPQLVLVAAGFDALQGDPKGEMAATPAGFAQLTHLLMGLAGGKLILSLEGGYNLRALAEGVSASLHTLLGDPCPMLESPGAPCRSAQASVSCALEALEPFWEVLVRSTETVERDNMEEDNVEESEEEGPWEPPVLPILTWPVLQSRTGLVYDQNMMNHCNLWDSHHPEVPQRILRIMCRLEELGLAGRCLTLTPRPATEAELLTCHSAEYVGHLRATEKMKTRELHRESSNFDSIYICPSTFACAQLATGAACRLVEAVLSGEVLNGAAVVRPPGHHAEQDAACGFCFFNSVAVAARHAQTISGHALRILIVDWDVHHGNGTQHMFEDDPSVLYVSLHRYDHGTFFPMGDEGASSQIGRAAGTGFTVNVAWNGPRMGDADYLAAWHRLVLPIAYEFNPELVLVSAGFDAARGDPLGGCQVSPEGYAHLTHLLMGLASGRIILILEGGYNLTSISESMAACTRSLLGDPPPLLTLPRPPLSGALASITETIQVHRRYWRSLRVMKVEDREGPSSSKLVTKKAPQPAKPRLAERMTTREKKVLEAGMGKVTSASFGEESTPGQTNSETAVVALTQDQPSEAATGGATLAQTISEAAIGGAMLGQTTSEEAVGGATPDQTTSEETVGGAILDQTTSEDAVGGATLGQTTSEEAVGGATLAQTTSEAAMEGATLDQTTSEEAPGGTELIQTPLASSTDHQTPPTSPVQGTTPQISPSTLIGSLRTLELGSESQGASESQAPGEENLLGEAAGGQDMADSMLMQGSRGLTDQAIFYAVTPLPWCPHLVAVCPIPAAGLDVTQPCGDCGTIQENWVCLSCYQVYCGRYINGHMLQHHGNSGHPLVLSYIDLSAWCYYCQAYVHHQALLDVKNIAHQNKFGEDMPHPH
# Histone deacetylase 3 [14] = molecular target: T4, Histone deacetylase 3; test: Inhibition of HDAC3 (unknown origin) using Boc-Lys (Ac)-AMC as substrate measured after 30 mins by fluorescence based analysis
# Histone deacetylase = test: Inhibition of human HDAC using human HeLa cell nuclear extract measured after 60 mins by fluorescence assay; format: subcellular, Nucleus
# Histone deacetylase 1 [15] = molecular target: T1, Histone deacetylase 1; test: Inhibition of human HDAC1 using fluorogenic as substrate measured after 30 mins by fluorescence based analysis
# Histone deacetylase 3 [16] = molecular target: T4, Histone deacetylase 3; test: Inhibition of human HDAC3 using fluorogenic as substrate measured after 30 mins by fluorescence based analysis
# T2 sequence (Q92769 whole entry): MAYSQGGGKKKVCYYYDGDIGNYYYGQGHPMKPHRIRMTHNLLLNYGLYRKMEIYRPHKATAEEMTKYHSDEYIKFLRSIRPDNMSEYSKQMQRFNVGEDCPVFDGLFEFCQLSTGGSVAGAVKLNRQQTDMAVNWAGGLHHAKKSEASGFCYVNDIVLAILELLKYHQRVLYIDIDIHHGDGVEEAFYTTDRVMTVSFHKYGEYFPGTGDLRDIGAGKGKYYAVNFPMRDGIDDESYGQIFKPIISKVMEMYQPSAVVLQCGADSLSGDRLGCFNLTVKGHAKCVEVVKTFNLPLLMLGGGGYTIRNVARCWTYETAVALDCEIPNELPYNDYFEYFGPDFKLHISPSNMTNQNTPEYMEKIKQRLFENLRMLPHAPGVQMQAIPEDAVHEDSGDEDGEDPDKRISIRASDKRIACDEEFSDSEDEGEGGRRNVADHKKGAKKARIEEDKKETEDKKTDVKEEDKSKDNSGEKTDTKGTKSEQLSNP
# T1 sequence (Q13547 whole entry): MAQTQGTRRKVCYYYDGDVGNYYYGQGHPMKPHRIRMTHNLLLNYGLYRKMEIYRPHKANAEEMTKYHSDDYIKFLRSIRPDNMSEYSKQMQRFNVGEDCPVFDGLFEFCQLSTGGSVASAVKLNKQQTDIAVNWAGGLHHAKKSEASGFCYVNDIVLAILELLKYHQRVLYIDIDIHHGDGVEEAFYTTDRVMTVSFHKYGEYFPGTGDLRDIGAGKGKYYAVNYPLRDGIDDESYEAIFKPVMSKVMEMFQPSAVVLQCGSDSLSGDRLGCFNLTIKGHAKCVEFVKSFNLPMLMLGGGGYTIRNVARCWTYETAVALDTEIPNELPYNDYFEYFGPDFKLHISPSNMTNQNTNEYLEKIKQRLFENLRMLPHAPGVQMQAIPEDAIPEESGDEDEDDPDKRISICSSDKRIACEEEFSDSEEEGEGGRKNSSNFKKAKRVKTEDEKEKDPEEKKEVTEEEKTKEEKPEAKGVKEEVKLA
# T4 sequence (O15379 whole entry): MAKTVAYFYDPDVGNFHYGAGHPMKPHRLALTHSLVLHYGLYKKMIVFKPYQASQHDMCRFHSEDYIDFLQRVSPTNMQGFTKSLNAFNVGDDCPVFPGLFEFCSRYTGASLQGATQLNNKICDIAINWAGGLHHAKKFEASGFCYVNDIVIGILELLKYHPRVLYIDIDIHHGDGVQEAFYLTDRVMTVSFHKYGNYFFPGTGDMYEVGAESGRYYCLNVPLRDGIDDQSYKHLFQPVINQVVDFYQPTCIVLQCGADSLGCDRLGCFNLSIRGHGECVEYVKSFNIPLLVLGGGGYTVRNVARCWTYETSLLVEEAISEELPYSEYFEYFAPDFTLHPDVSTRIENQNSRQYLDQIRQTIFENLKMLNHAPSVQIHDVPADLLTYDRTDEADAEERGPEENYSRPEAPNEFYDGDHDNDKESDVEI
structure (smiles),measurement,setting,value
Nc1ccccc1NC(=O)c1ccc(CNc2nc(-c3ccccc3)cs2)cc1,IC50,Histone deacetylase 1 [1],930 nM
same,IC50,Histone deacetylase 2 [2],85 nM
same,IC50,Histone deacetylase 8 [3],4100 nM
same,IC50,Histone deacetylase 3 [4],12 nM
O=C(CCCCCCN(Cc1ccc2ccccc2c1)Cc1ccc2ccccc2c1)NO,IC50,Histone deacetylase 2 [5],4200 nM
same,IC50,Histone deacetylase 8 [6],5400 nM
same,IC50,Histone deacetylase 1 [7],1100 nM
same,IC50,Histone deacetylase 3 [8],950 nM
Cc1noc(C)c1-c1ccc2c(c1)c(Cc1ccc(F)cc1)cn2CCCCCC(=O)NO,IC50,Histone deacetylase 1 [9],341 nM
same,IC50,Histone deacetylase 3 [10],39 nM
same,IC50,Histone deacetylase 2 [11],517 nM
COC(=O)/C=C/c1ccc(OCCCNc2cc3c([nH]c4ccccc43)c(-c3ccc(OC)cc3)n2)c(OC)c1,IC50,Histone deacetylase 1 [12],27 nM
same,IC50,[13],13 nM
same,IC50,Histone deacetylase 3 [14],148 nM
Cc1noc(C)c1-c1ccc2c(c1)c(Cc1ccccc1)cn2CCCCCCC(=O)NO,IC50,Histone deacetylase 1 [9],179 nM
same,IC50,Histone deacetylase 3 [10],23 nM
same,IC50,Histone deacetylase 2 [11],118 nM
O=C(CCCCCCNCc1ccc(F)cc1)NO,IC50,Histone deacetylase 2 [5],1500 nM
same,IC50,Histone deacetylase 8 [6],1700 nM
same,IC50,Histone deacetylase 1 [7],220 nM
same,IC50,Histone deacetylase 3 [8],240 nM
O=C(NO)c1ccc(NC(=O)[C@@H](NS(=O)(=O)c2cccc3ccccc23)c2ccccc2)cc1,IC50,Histone deacetylase,15.6 nM
CN(C)c1cccc2c(S(=O)(=O)N[C@H](C(=O)Nc3ccc(C(=O)NO)cc3)c3ccccc3)cccc12,IC50,Histone deacetylase,9.7 nM
same,IC50,Histone deacetylase 1 [15],24.7 nM
same,IC50,Histone deacetylase 3 [16],24.4 nM
O=C(CCCCCCNCc1ccc2ccccc2c1)NO,IC50,Histone deacetylase 2 [5],320 nM
same,IC50,Histone deacetylase 8 [6],320 nM
same,IC50,Histone deacetylase 1 [7],39 nM
same,IC50,Histone deacetylase 3 [8],68 nM
O=C(CCCCCCNCc1ccc(-c2ccccc2)s1)NO,IC50,Histone deacetylase 2 [5],690 nM
same,IC50,Histone deacetylase 8 [6],550 nM
same,IC50,Histone deacetylase 1 [7],48 nM
same,IC50,Histone deacetylase 3 [8],38 nM
Cc1cccc(Cc2cn(CCCCCC(=O)NO)c3ccc(-c4c(C)noc4C)cc23)c1,IC50,Histone deacetylase 1 [9],222 nM
same,IC50,Histone deacetylase 3 [10],62 nM
same,IC50,Histone deacetylase 2 [11],568 nM
Cc1ccccc1CCc1cn(CCCCCC(=O)NO)c2ccc(-c3c(C)noc3C)cc12,IC50,Histone deacetylase 1 [9],314 nM
same,IC50,Histone deacetylase 3 [10],62 nM
same,IC50,Histone deacetylase 2 [11],> 1000 nM
Cc1cccc(Cc2cn(CCCCCCC(=O)NO)c3ccc(-c4c(C)noc4C)cc23)c1,IC50,Histone deacetylase 1 [9],253 nM
same,IC50,Histone deacetylase 3 [10],24 nM
same,IC50,Histone deacetylase 2 [11],127 nM
O=C(CCCCCCN(Cc1cc2ccccc2[nH]1)Cc1cc2ccccc2[nH]1)NO,IC50,Histone deacetylase 2 [5],3700 nM
same,IC50,Histone deacetylase 8 [6],4600 nM
same,IC50,Histone deacetylase 1 [7],340 nM
same,IC50,Histone deacetylase 3 [8],1300 nM
O=C(NO)c1ccc(NC(=O)[C@@H](NC(=O)c2cccc(Br)c2)c2ccccc2)cc1,IC50,Histone deacetylase,13.7 nM
same,IC50,Histone deacetylase 1 [15],11.8 nM
same,IC50,Histone deacetylase 3 [16],8.5 nM
O=C(CCCCCCNCc1cc2ccccc2[nH]1)NO,IC50,Histone deacetylase 2 [5],260 nM
same,IC50,Histone deacetylase 8 [6],620 nM
same,IC50,Histone deacetylase 1 [7],61 nM
same,IC50,Histone deacetylase 3 [8],25 nM
O=C(NO)c1ccc(NC(=O)[C@@H](NC(=O)c2ccc3ccccc3c2)c2ccccc2)cc1,IC50,Histone deacetylase,14.3 nM
same,IC50,Histone deacetylase 3 [16],16.8 nM
COc1ccc(CNCCCCCCC(=O)NO)cc1OC,IC50,Histone deacetylase 2 [5],1800 nM
same,IC50,Histone deacetylase 8 [6],1800 nM
same,IC50,Histone deacetylase 1 [7],210 nM
same,IC50,Histone deacetylase 3 [8],180 nM
CCC(=O)CCCCC[C@H](NC(=O)N1CCOCC1)c1ncc(-c2cc3ccccc3nc2OC)o1,IC50,Histone deacetylase 3 [4],7 nM
